Data on 21 compounds can be found in patent US9365522B2, “Pyrazole amide derivative” (AMGEN INC., priority 2015, dated 2016).

In this assay the target is T1, human RORγ-LBD (Homo sapiens, UniProt P51449).
T1 construct: made in house; host or cells: E. coli (BL-21)
T1 sequence (P51449 262-518): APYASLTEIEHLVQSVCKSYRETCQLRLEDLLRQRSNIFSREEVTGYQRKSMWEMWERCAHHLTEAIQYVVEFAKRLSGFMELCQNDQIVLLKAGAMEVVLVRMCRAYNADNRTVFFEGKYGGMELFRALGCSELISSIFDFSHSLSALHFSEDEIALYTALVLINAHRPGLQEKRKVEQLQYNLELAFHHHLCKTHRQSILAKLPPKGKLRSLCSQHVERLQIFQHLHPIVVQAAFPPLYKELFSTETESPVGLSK
Put plainly: ROR gamma coactivator peptide recruitment Alphascreen assay (RORγ-LBD binding to GRIP1 coactivator peptide). The conditions noted are these: 5 nM human RORγ-LBD, 30 nM 7-β-hydroxycholesterol, 50 nM biotinylated GRIP1 coactivator peptide, overnight incubation at room temperature; read-out: result (pIC50, RORγ coactivator peptide recruitment Alphascreen assay) (converted). In kind it is biochemical. An outline of the steps:
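His/Flag-tagged human RORγ-LBD (aa 262-518, E. coli-expressed, 5 nM) with agonist 7-β-hydroxycholesterol (30 nM) and biotinylated GRIP1 LXXLL peptide (50 nM) in HEPES pH 7.4 buffer, 2.5% DMSO. Compound 1-in-2 dilutions; Alphascreen bead signal read after overnight incubation at room temperature; pIC50 calculated.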
As for `C[C@]1(C(=O)O)CC[C@H](n2ncc(C(=O)N(CC(=O)c3c(Cl)ccc(F)c3Cl)CC3(C(F)(F)F)CC3)c2C(F)(F)F)CC1` [Example 798, (1r,4r)-4-(4-((2-(2,6-dichloro-3-fluorophenyl)-2-oxoethyl)((1-(trifluoromethyl)cyclopropyl)methyl)carbamoyl)-5-(trifluoromethyl)-1H-pyrazol-1-yl)-1-methylcyclohexanecarboxylic acid], the IC50 was 3.16 nM.
As to `C[C@]1(C(=O)O)CC[C@H](n2ncc(C(=O)N(CC(=O)c3c(Cl)cncc3Cl)CC3(C(F)(F)F)CCC3)c2C(F)(F)F)CC1` [Example 799, trans-4-(4-((2-(3,5-dichloro-4-pyridinyl)-2-oxoethyl)((1-(trifluoromethyl)cyclobutyl)methyl)carbamoyl)-5-(trifluoromethyl)-1H-pyrazol-1-yl)-1-methylcyclohexanecarboxylic acid], the IC50 is 3.89 nM.
With `C[C@]1(C(=O)O)CC[C@H](n2ncc(C(=O)N(CC(=O)c3c(Cl)cncc3Cl)CC3(CF)CCC3)c2C(F)(F)F)CC1` [Example 800, trans-4-(4-((2-(3,5-dichloro-4-pyridinyl)-2-oxoethyl)((1-(fluoromethyl)cyclobutyl)methyl)carbamoyl)-5-(trifluoromethyl)-1H-pyrazol-1-yl)-1-methylcyclohexanecarboxylic acid] the figure was 3.02 nM; with `Cc1cc(Cl)c(C(=O)CN(CC2CCCCC2)C(=O)c2cnn([C@H]3CC[C@](C)(C(=O)O)CC3)c2C(F)(F)F)c(Cl)n1` [Example 801, trans-4-(4-((cyclohexylmethyl)(2-(2,4-dichloro-6-methyl-3-pyridinyl)-2-oxoethyl)carbamoyl)-5-(trifluoromethyl)-1H-pyrazol-1-yl)-1-methylcyclohexanecarboxylic acid], 8.51 nM.
For `C[C@@H]1C[C@@H](n2ncc(C(=O)N(CC(=O)c3c(Cl)cncc3Cl)CC(C)(C)C(F)(F)F)c2C(F)(F)F)CC[C@@H]1C(=O)O` [Example 802, (1S,2R,4S)-4-(4-((2-(3,5-dichloro-4-pyridinyl)-2-oxoethyl)(3,3,3-trifluoro-2,2-dimethylpropyl)carbamoyl)-5-(trifluoromethyl)-1H-pyrazol-1-yl)-2-methylcyclohexanecarboxylic acid], the IC50 was 3.02 nM.
As to `CC(C)CCN(CC(=O)c1c(Cl)cncc1Cl)C(=O)c1cnn([C@H]2CC[C@H](C(=O)O)[C@H](C)C2)c1C(F)(F)F` [Example 803, (1S,2R,4S)-4-(4-((2-(3,5-dichloro-4-pyridinyl)-2-oxoethyl)(3-methylbutyl)carbamoyl)-5-(trifluoromethyl)-1H-pyrazol-1-yl)-2-methylcyclohexanecarboxylic acid], the IC50 was 63.1 nM.
With `CC(C)CCN(CC(=O)c1c(Cl)cccc1Cl)C(=O)c1cnn([C@H]2CC[C@H](C(=O)O)[C@H](C)C2)c1C(F)(F)F` [Example 804, (1S,2R,4S)-4-(4-((2-(2,6-dichlorophenyl)-2-oxoethyl)(3-methylbutyl)carbamoyl)-5-(trifluoromethyl)-1H-pyrazol-1-yl)-2-methylcyclohexanecarboxylic acid], the IC50 was 53.7 nM.
In the case of `Cc1cc(F)c(C(=O)CN(C[C@]2(C)CCCO2)C(=O)c2cnn([C@H]3CC[C@](C)(C(=O)O)CC3)c2C(F)(F)F)c(Cl)c1` [Example 805, trans-4-(4-((2-(2-chloro-6-fluoro-4-methylphenyl)-2-oxoethyl)(((2S)-2-methyltetrahydro-2-furanyl)methyl)carbamoyl)-5-(trifluoromethyl)-1H-pyrazol-1-yl)-1-methylcyclohexanecarboxylic acid], the IC50 was 11.2 nM.
For the compound `Cc1cc(F)c(C(=O)CN(C[C@@]2(C)CCCO2)C(=O)c2cnn([C@H]3CC[C@](C)(C(=O)O)CC3)c2C(F)(F)F)c(Cl)c1` [Example 806, trans-4-(4-((2-(2-chloro-6-fluoro-4-methylphenyl)-2-oxoethyl)(((2R)-2-methyltetrahydro-2-furanyl)methyl)carbamoyl)-5-(trifluoromethyl)-1H-pyrazol-1-yl)-1-methylcyclohexanecarboxylic acid], the IC50 is 102 nM.
With `C[C@]1(C(=O)O)CC[C@H](n2ncc(C(=O)N(CC(=O)c3c(Cl)cncc3Cl)C[C@H]3CCCO3)c2C(F)(F)F)CC1` [Example 808, trans-4-(4-((2-(3,5-dichloro-4-pyridinyl)-2-oxoethyl)((2R)-tetrahydro-2-furanylmethyl)carbamoyl)-5-(trifluoromethyl)-1H-pyrazol-1-yl)-1-methylcyclohexanecarboxylic acid] the figure was 186 nM.
With `C[C@@H]1C[C@@H](n2ncc(C(=O)N3CC4(CC=CC4)C[C@@H]3Cc3c(Cl)cncc3Cl)c2C(F)(F)F)CC[C@@H]1C(=O)O` [Example 809, (1S,2R,4S)-4-(4-(((3R)-3-((3,5-dichloro-4-pyridinyl)methyl)-2-azaspiro[4.4]non-7-en-2-yl)carbonyl)-5-(trifluoromethyl)-1H-pyrazol-1-yl)-2-methylcyclohexanecarboxylic acid], the IC50 is 17.8 nM.
Consider `C[C@@H]1C[C@@H](n2ncc(C(=O)N(CC(=O)c3c(Cl)cncc3Cl)CC3(F)CCCC3)c2C(F)(F)F)CC[C@@H]1C(=O)O` [Example 810, (1S,2R,4S)-4-(4-((2-(3,5-dichloro-4-pyridinyl)-2-oxoethyl)((1-fluorocyclopentyl)methyl)carbamoyl)-5-(trifluoromethyl)-1H-pyrazol-1-yl)-2-methylcyclohexanecarboxylic acid], for which the IC50 is 3.09 nM.
Next, `C[C@@H]1C[C@@H](n2ncc(C(=O)N(CC(=O)c3c(Cl)cccc3Cl)CC3(C(F)(F)F)CC3)c2C(F)(F)F)CC[C@@H]1C(=O)O` [Example 811, (1S,2R,4S)-4-(4-((2-(2,6-dichlorophenyl)-2-oxoethyl)((1-(trifluoromethyl)cyclopropyl)methyl)carbamoyl)-5-(trifluoromethyl)-1H-pyrazol-1-yl)-2-methylcyclohexanecarboxylic acid]: 1.78 nM.
Turning to `C[C@@H]1C[C@H](n2ncc(C(=O)N(CC(=O)c3c(Cl)cncc3Cl)CC(C)(C)C)c2C(F)(F)F)CC[C@H]1C(=O)O` [Example 812, (1R,2R,4R)-4-(4-((2-(3,5-dichloro-4-pyridinyl)-2-oxoethyl)(2,2-dimethylpropyl)carbamoyl)-5-(trifluoromethyl)-1H-pyrazol-1-yl)-2-methylcyclohexanecarboxylic acid], the IC50 was 9.33 nM.
Turning to `C[C@]1(CN(CC(=O)c2c(Cl)ccc(F)c2Cl)C(=O)c2cnn([C@H]3CC[C@](C)(C(=O)O)CC3)c2C(F)(F)F)CCCO1` [Example 814, trans-4-(4-((2-(2,6-dichloro-3-fluorophenyl)-2-oxoethyl)(((2R)-2-methyltetrahydro-2-furanyl)methyl)carbamoyl)-5-(trifluoromethyl)-1H-pyrazol-1-yl)-1-methylcyclohexanecarboxylic acid], the IC50 was 9.12 nM.
With `C[C@@]1(CN(CC(=O)c2c(Cl)ccc(F)c2Cl)C(=O)c2cnn([C@H]3CC[C@](C)(C(=O)O)CC3)c2C(F)(F)F)CCCO1` [Example 815, trans-4-(4-((2-(2,6-dichloro-3-fluorophenyl)-2-oxoethyl)(((2S)-2-methyltetrahydro-2-furanyl)methyl)carbamoyl)-5-(trifluoromethyl)-1H-pyrazol-1-yl)-1-methylcyclohexanecarboxylic acid] the figure was 12.9 nM.
Consider `C[C@@H]1C[C@@H](n2ncc(C(=O)N(CC(=O)c3c(Cl)cncc3Cl)[C@H]3CCC34CCC4)c2C(F)(F)F)CC[C@@H]1C(=O)O` [Example 816, (1S,2R,4S)-4-(4-((2-(3,5-dichloro-4-pyridinyl)-2-oxoethyl)((1S)-spiro[3.3]hept-1-yl)carbamoyl)-5-(trifluoromethyl)-1H-pyrazol-1-yl)-2-methylcyclohexanecarboxylic acid], for which the IC50 is 4.47 nM.
With `C[C@@H]1C[C@@H](n2ncc(C(=O)N(CC(=O)c3c(Cl)cncc3Cl)[C@@H]3CCC34CCC4)c2C(F)(F)F)CC[C@@H]1C(=O)O` [Example 817, (1S,2R,4S)-4-(4-((2-(3,5-dichloro-4-pyridinyl)-2-oxoethyl)((1R)-spiro[3.3]hept-1-yl)carbamoyl)-5-(trifluoromethyl)-1H-pyrazol-1-yl)-2-methylcyclohexanecarboxylic acid] the figure was 64.6 nM; with `C[C@]1(C(=O)O)CC[C@H](n2ncc(C(=O)N(CC(=O)c3c(Cl)cncc3Cl)C[C@@H]3CC3(F)F)c2C(F)(F)F)CC1` [Example 818, trans-4-(4-((2-(3,5-dichloro-4-pyridinyl)-2-oxoethyl)(((1S)-2,2-difluorocyclopropyl)methyl)carbamoyl)-5-(trifluoromethyl)-1H-pyrazol-1-yl)-1-methylcyclohexanecarboxylic acid], 7.24 nM.
Turning to `C[C@]1(C(=O)O)CC[C@H](n2ncc(C(=O)N(CC(=O)c3c(Cl)cncc3Cl)C[C@H]3CC3(F)F)c2C(F)(F)F)CC1` [Example 819, trans-4-(4-((2-(3,5-dichloro-4-pyridinyl)-2-oxoethyl)(((1R)-2,2-difluorocyclopropyl)methyl)carbamoyl)-5-(trifluoromethyl)-1H-pyrazol-1-yl)-1-methylcyclohexanecarboxylic acid], the IC50 was 50.1 nM.
With `C[C@@H]1C[C@@H](n2ncc(C(=O)N(CC(=O)c3c(Cl)cncc3Cl)C[C@H]3CCCO3)c2C(F)(F)F)CC[C@@H]1C(=O)O` [Example 820, (1S,2R,4S)-4-(4-((2-(3,5-dichloro-4-pyridinyl)-2-oxoethyl)((2R)-tetrahydro-2-furanylmethyl)carbamoyl)-5-(trifluoromethyl)-1H-pyrazol-1-yl)-2-methylcyclohexanecarboxylic acid] the figure was 100 nM.
